From patent US20250381157A1, “ANTIMICROBIAL COMPOUNDS” (priority 2022, published 2025)
Like-named read-outs stand apart in the source and are kept apart here.

Key:
bacteria in culture = experiment: in vitro toxicity to bacteria in culture; type: cell-based
[1] = Mouse ileum C-max after single PO dose; type: in vivo
recombinant human HDAC1 = molecular target: T1, recombinant human HDAC1 (Homo sapiens, UniProt Q13547); experiment: HDAC1 in-vitro enzymatic assay; type: biochemical
T1 construct: purchased BPS 50051
T1 sequence (Q13547 whole entry): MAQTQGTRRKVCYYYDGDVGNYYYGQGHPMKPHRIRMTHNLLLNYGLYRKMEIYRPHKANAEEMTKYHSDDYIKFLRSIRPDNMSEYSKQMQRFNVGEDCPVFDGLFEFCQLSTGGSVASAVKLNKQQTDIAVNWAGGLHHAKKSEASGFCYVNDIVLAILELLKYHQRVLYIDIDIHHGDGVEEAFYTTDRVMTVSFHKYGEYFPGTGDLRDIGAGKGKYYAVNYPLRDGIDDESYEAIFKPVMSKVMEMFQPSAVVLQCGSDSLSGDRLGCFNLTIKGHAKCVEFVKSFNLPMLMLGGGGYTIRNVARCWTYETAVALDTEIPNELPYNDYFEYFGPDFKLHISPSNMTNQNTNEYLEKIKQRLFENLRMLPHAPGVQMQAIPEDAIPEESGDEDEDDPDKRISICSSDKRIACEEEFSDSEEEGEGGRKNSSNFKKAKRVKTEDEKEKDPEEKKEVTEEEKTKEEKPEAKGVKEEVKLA
Procedure: (§1) All of the compounds were dissolved in DMSO. A series of dilutions of the compounds were prepared with 10% DMSO in HDAC assay buffer and 5 μl of the dilution was added to a 50 μl reaction so that the final concentration of DMSO was 1% in all of reactions. The compounds were pre-incubated in duplicate at RT for 30 minutes in a mixture containing HDAC assay buffer, 5 μg BSA, HDAC enzyme and a test compound. After 30 minutes, the enzymatic reactions were initiated by the addition of HDAC substrate to a final concentration of 20 μM or 2 μM. The enzymatic reaction proceeded for 30 minutes at 37° C. After enzymatic reactions, 50 μl of 2×HDAC Developer was added to each well for the HDAC enzymes and the plate was incubated at room temperature for an additional 15 minutes. Fluorescence intensity was measured at an excitation of 360 nm and an emission of 460 nm using a Tecan Infinite M1000 microplate reader.
(§2) HDAC activity assays were performed in duplicates at each concentration. The fluorescent intensity data were analyzed using the computer software, Graphpad Prism. […] The percent activity in the presence of each compound was calculated according to the following equation: % activity=(F−Fb)/(Ft−Fb), where F=the fluorescent intensity in the presence of the compound. […] The IC50 value was determined by the concentration causing a half-maximal percent activity.

recombinant human HDAC2 = molecular target: T2, recombinant human HDAC2 (Homo sapiens, UniProt Q92769); experiment: biochemical
T2 construct: purchased BPS 50002
T2 sequence (Q92769 whole entry): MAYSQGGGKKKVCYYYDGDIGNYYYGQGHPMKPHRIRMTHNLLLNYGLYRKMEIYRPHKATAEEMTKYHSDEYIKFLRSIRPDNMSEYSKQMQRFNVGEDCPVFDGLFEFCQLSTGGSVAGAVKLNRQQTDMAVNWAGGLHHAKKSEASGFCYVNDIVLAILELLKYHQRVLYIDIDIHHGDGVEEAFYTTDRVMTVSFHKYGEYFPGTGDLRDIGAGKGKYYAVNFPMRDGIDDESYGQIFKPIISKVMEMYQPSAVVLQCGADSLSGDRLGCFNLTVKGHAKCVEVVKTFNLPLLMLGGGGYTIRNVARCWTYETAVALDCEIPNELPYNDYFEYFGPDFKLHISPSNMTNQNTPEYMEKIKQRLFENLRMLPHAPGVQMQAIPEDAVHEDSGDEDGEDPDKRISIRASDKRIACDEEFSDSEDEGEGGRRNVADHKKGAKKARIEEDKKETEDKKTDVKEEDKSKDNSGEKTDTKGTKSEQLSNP
Procedure: as §1, §2

[2] = Rat pharmacokinetics (IV, PO); type: in vivo
recombinant human HDAC8 = molecular target: T3, recombinant human HDAC8 (Homo sapiens, UniProt Q9BY41); experiment: HDAC8 in-vitro enzymatic assay; type: biochemical
T3 construct: purchased BPS 50008
T3 sequence (Q9BY41 1-377): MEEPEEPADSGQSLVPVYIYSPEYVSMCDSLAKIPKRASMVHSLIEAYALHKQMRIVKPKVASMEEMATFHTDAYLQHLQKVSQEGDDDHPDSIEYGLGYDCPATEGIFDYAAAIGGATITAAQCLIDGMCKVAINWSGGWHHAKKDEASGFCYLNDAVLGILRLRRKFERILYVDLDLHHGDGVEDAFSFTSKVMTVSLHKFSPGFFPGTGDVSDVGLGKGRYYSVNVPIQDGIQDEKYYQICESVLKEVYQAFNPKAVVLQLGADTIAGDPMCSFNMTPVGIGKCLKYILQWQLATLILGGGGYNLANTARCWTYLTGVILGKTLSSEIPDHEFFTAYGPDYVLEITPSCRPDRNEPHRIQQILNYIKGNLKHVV
Procedure: as §1, §2

Plasma stability Mouse = type: in vitro ADME
in vivo = conditions: mouse, po
[3] = Dose escalation toxicity and MTD in mouse; conditions: in vivo
E. coli = E. coli mouse infection model; type: in vivo; conditions: for translocation of bacteria to liver and spleen: oral, CFU in liver
Procedure: FIG. 1: E. coli mouse infection model. CFU measured in tissue: colon, ileum, liver, spleen. Statistical analysis was performed by comparing all conditions to the vehicle-treated group and using one-way ANOVA with Dunnett post-hoc test, *** p<0.001, **** p<0.0001, ns non-significant.
Compound 1 was administered orally to a mouse model of E. coli infection at 25 mg/kg, 73.5 mk/kg and 50 mg/kg. Compound 1 achieved the study goal of lowering Colony Unit Forming count in colon tissue by a factor of 3 log10 compared to vehicle treated animals.
• Infecting mice through oral administration of a vancomycin resistant pathogenic strain of E. coli simplified the process of determining the mechanism(s) by which compound 1 exerts its effects on the pathogenic process. […] This is evidenced by the fact that there still are viable vancomycin resistant E. coli present in the colon and ileum at the conclusion of the experiment (FIG. 1). […] It is therefore unlikely that compound 1 is inhibiting E. coli translocation to these organs solely due to its ability to stimulate production of antibacterial peptides. […] That experiment was performed in the presence of cyclophosphamide, which is known to cause febrile neutropenia due to translocation of bacteria to vital organs. […] First is the ability of the compound 1 to attenuate the growth of bacteria and secondly is its ability to inhibit the bacterial translocation.

recombinant human HDAC4 = molecular target: T4, recombinant human HDAC4 (Homo sapiens, UniProt P56524); experiment: HDAC4 in-vitro enzymatic assay; type: biochemical
T4 construct: purchased BPS 50004
T4 sequence (P56524 whole entry): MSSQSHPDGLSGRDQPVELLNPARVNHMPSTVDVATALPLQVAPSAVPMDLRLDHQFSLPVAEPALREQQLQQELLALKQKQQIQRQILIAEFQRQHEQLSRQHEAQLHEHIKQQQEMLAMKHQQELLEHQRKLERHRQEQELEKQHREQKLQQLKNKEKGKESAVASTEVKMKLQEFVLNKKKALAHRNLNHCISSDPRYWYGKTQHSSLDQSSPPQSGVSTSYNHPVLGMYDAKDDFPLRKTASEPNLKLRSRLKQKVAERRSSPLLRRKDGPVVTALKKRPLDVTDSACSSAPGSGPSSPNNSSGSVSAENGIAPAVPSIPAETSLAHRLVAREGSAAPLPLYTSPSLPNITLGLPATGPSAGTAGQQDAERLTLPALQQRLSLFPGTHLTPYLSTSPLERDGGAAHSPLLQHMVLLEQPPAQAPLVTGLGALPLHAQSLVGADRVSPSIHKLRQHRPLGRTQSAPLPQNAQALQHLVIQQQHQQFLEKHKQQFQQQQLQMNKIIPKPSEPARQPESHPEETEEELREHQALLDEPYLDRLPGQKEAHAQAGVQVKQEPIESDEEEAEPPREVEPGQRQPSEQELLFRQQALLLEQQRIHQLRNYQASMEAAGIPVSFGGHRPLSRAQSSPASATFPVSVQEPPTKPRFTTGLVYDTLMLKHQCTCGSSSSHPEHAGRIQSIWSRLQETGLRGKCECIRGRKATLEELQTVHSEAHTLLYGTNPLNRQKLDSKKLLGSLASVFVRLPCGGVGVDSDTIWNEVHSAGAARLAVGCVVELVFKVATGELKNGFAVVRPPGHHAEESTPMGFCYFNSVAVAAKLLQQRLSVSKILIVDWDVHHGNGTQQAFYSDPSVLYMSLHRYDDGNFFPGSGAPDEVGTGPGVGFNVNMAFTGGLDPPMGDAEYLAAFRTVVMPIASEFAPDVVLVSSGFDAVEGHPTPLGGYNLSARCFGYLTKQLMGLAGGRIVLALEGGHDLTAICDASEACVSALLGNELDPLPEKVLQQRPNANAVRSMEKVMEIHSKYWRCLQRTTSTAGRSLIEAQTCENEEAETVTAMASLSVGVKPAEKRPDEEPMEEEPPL
Procedure: as §1, §2

## C#CCOCC(=O)Nc1ccc(C(=O)Nc2ccccc2N)cc1 [Compound 1, N-(2-aminophenyl)-4-{2-[(prop-2-yn-1-yl)oxy]acetamido}benzamide]
Bacteria in culture
  toxicity to bacteria in culture: not toxic
[1]; PO single 5 mg/kg
  PO single 5 mg/kg mouse - Ileum C-max: 0.9 µM
[1]; PO single 15 mg/kg
  PO single 15 mg/kg mouse - Ileum C-max: 2.0 µM
[1]; PO single 50 mg/kg
  PO single 50 mg/kg mouse - Ileum C-max: 7.1 µM
Recombinant human HDAC1
  IC50: < 1 µM
Recombinant human HDAC1; @ 1 μM, read-out: Inhib. HDAC1
  inhibition at 1 µM: 75%
Recombinant human HDAC2
  IC50: ~1.2 µM
[2]; IV
  C_max IV - rat: 177 µM
  V-d IV - rat: 0.565 L/kg
[2]; PO
  C_max PO - rat: 3.3 µM
[2]; in vivo, PO, read-out: Elimination T½ (min) PO - rat
  half-life: 34 min
[2]; in vivo, intravenous, PIV, read-out: Elimination T½ (min) PIV - rat
  half-life: 66 min
[2]; in vivo, oral
  bioavailability: 1%
Recombinant human HDAC8
  IC50: > 200 µM
Recombinant human HDAC8; @ 200 μM, read-out: Inhib. HDAC8
  inhibition at 200 µM: 42%
Plasma stability Mouse
  Plasma stability Mouse: Low
In vivo; 7 Days PO once daily MTD - mouse
  MTD at 7 days: > 50 mg/kg
In vivo; 7 Days PO twice daily MTD - mouse
  MTD at 7 days: 50 mg/kg
[3]; iv
  Dose Esc. Tox mouse iv: 100 mg/kg
[3]; po
  Dose Esc. Tox mouse PO: 50 mg/kg
E. coli; FIG. 1
  dose dependence of attenuation of E. coli growth in the colon and ileum: shows dose dependence
  dose dependence of inhibition of vancomycin resistant E. coli translocation to the liver and spleen: not compound 1 dose dependent
E. coli; administered orally at 25 mg/kg, 73.5 mk/kg and 50 mg/kg
  lowering Colony Unit Forming count in colon tissue compared to vehicle treated animals: 3 log10
E. coli; colon and ileum, conclusion of the experiment
  E. coli burden in the intestines reduced compared to control: ~3 logs
E. coli
  translocation of bacteria to liver and spleen: completely knocking out translocation
E. coli; listed as compound 1
  translocation of bacteria to liver and spleen: totally inhibiting its translocation
Recombinant human HDAC4
  IC50: > 200 µM
Recombinant human HDAC4; @ 200 μM
  Inhib. HDAC4: No Inhib. @ 200 μM
